Test in all cases: biochemical
Design in all cases: KINOMEscan scanMAX competition binding, DNA-tagged kinases, qPCR read-out, percent control at 300 nM
(In general: Real-time PCR tracks product formation cycle by cycle.)

In test [1] the target is T1, DCAMKL3 (Homo sapiens, UniProt Q9C098).
T1 construct: gene DCLK3

Test [2] addresses BMPR1B (Homo sapiens, UniProt O00238).
Test [3] addresses MYO3A (Homo sapiens, UniProt Q8NEV4).
The target in test [4] is T2, RPS6KA5(Kin.Dom.2-C-terminal) (Homo sapiens, UniProt O75582).
T2 construct: Kin.Dom.2-C-terminal

For test [5], the target named is T3, RSK3(Kin.Dom.1-N-terminal) (Homo sapiens, UniProt Q15349).
T3 construct: gene RPS6KA2; Kin.Dom.1-N-terminal

For test [6], the target named is T4, ADCK4 (Homo sapiens, UniProt Q96D53).
T4 construct: gene COQ8B

The target in test [7] is MAPKAPK2 (Homo sapiens, UniProt P49137).
Test [8] addresses ANKK1 (Homo sapiens, UniProt Q8NFD2).
For test [9], the target named is MAP3K4 (Homo sapiens, UniProt Q9Y6R4).
For test [10], the target named is T5, ABL1(H396P)-nonphosphorylated (Homo sapiens, UniProt P00519, H396P).
T5 construct: nonphosphorylated

For test [11], the target named is PIK3CA(M1043I) (Homo sapiens, UniProt P42336, M1043I).
Test [12] has as its target T6, ERK4 (Homo sapiens, UniProt P31152).
T6 construct: gene MAPK4

Test [13] deals with NEK9 (Homo sapiens, UniProt Q8TD19).
In test [14] the target is ROCK1 (Homo sapiens, UniProt Q13464).
Test [15] deals with CAMK2D (Homo sapiens, UniProt Q13557).
Test [16] addresses IGF1R (Homo sapiens, UniProt P08069).
Test [17] has as its target T7, ARK5 (Homo sapiens, UniProt O60285).
T7 construct: gene NUAK1

Test [18] addresses GSK3A (Homo sapiens, UniProt P49840).
Test [19] has as its target GRK7 (Homo sapiens, UniProt Q8WTQ7).
Test [20] deals with T8, TYK2(JH2domain-pseudokinase) (Homo sapiens, UniProt P29597).
T8 construct: JH2domain-pseudokinase

Test [21] concerns the target T9, TAK1 (Homo sapiens, UniProt O43318).
T9 construct: gene MAP3K7

For test [22], the target named is T10, AMPK-alpha2 (Homo sapiens, UniProt P54646).
T10 construct: gene PRKAA2

Test [23] has as its target T11, MST4 (Homo sapiens, UniProt Q9P289).
T11 construct: gene STK26

Where [24] appears, read: read-out: Percent control / Tirabrutinib.
The mark [25] stands for this setting: read-out: Percent control / Acalabrutinib.
Setting [26] is: read-out: Percent control / Ibrutinib.
[27] abbreviates: read-out: Percent control / Zanubrutinib.

Each structure is given as a SMILES string. Read-outs that look alike come from different tables or passages of the source.

Sequence of GSK3A (P49840 whole entry): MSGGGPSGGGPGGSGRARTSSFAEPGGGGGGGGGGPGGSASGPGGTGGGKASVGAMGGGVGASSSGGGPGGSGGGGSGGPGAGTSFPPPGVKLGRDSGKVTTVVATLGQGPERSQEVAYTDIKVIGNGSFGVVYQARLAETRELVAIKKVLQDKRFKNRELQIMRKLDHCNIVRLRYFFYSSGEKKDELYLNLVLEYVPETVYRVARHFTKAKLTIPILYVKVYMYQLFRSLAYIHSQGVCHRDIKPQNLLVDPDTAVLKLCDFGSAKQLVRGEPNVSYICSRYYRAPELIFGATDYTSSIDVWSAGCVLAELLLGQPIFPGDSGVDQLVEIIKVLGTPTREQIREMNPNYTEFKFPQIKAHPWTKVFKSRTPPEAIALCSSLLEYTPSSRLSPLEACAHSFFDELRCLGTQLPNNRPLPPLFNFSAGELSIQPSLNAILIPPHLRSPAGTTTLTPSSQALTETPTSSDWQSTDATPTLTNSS
T3 sequence (Q15349 whole entry): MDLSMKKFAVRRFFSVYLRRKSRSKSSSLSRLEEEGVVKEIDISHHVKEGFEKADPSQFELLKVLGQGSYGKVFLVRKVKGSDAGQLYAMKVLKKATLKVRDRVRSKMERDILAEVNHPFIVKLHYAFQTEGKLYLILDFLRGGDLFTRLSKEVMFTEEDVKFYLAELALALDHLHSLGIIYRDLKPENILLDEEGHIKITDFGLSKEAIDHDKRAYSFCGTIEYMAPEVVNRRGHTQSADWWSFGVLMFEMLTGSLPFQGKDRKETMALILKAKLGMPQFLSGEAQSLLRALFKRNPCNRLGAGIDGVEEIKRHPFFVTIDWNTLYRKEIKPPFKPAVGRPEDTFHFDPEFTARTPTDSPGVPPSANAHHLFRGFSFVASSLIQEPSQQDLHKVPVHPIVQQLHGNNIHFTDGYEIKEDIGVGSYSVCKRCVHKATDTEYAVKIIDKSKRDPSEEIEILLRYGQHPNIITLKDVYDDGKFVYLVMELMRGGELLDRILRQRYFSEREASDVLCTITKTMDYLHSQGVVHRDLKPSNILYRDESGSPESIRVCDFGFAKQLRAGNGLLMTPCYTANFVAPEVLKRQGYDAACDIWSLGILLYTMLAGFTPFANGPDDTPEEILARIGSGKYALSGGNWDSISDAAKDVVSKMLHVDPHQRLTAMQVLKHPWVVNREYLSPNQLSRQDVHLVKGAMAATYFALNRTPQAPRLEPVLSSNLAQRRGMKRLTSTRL
T11 sequence (Q9P289 whole entry): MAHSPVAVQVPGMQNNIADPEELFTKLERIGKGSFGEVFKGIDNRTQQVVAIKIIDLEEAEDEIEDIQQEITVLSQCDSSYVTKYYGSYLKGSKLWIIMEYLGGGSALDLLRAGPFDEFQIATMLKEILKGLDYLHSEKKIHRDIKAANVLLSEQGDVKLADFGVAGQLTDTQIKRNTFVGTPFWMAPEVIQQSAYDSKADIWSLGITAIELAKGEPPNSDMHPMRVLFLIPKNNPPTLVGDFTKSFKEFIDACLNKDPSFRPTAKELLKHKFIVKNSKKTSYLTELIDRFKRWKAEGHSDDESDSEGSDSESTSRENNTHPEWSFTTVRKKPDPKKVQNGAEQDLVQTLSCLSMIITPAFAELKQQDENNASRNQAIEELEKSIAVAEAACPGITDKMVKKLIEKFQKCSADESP
Sequence of IGF1R (P08069 whole entry): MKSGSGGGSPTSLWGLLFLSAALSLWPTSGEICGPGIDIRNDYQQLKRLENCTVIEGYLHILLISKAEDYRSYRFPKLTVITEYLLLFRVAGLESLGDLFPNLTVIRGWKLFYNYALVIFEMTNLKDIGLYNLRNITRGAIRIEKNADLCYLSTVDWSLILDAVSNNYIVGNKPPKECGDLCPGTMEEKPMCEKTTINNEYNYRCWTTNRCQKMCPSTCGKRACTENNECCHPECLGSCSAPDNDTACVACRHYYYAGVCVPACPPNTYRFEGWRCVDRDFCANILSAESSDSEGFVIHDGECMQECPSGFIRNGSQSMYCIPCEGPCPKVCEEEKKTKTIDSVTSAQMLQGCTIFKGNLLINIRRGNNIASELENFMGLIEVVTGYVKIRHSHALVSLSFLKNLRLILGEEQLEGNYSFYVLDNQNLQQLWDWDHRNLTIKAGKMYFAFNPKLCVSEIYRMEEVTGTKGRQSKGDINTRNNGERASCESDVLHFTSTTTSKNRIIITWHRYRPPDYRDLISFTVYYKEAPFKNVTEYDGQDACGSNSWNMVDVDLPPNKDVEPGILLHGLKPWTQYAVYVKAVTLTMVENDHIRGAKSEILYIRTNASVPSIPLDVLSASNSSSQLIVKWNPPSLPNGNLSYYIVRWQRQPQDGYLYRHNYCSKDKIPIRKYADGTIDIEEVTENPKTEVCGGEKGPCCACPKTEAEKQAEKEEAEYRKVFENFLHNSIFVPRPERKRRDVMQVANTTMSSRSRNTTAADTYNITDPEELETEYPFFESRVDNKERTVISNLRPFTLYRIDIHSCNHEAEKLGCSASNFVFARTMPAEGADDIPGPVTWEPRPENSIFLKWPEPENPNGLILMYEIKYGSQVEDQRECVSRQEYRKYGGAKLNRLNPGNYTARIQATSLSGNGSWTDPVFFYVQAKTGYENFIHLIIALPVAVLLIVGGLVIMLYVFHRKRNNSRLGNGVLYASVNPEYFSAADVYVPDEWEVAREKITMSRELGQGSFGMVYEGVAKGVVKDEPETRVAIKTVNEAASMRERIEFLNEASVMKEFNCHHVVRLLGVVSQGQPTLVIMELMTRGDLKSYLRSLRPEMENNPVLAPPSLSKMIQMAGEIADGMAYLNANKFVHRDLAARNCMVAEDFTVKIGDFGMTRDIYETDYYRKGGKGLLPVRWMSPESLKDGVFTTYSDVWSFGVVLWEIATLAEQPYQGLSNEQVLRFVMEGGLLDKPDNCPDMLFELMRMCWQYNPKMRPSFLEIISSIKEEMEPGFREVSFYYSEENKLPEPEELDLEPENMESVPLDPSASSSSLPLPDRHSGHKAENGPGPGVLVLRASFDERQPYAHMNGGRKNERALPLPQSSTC
T7 sequence (O60285 whole entry): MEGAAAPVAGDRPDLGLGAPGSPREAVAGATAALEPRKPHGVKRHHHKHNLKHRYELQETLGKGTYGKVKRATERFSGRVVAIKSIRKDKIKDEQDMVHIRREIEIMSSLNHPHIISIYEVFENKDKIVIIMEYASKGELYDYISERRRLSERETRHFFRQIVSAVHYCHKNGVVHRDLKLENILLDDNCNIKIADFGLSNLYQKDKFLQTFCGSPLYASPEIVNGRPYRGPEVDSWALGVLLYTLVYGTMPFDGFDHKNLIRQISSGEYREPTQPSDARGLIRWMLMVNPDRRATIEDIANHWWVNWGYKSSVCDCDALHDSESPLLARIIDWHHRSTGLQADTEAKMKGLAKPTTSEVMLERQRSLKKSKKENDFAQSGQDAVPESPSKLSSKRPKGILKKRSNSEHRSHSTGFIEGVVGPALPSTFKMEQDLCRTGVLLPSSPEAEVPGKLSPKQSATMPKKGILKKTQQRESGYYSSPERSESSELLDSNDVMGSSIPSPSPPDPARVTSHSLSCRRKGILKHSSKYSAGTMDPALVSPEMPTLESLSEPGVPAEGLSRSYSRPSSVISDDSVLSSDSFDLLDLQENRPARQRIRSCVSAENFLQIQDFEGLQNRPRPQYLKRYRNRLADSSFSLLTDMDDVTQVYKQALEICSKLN
Sequence of MAPKAPK2 (P49137 whole entry): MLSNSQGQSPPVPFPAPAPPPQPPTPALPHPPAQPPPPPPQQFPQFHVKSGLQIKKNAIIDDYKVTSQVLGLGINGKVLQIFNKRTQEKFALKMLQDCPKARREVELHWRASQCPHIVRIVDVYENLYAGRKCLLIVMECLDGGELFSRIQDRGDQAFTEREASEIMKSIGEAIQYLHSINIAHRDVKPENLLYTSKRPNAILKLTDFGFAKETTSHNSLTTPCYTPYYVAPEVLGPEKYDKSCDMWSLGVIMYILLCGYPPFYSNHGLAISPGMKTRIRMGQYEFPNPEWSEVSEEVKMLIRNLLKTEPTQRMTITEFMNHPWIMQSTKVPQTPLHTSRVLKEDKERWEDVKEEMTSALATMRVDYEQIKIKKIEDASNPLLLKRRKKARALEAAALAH
T9 sequence (O43318 whole entry): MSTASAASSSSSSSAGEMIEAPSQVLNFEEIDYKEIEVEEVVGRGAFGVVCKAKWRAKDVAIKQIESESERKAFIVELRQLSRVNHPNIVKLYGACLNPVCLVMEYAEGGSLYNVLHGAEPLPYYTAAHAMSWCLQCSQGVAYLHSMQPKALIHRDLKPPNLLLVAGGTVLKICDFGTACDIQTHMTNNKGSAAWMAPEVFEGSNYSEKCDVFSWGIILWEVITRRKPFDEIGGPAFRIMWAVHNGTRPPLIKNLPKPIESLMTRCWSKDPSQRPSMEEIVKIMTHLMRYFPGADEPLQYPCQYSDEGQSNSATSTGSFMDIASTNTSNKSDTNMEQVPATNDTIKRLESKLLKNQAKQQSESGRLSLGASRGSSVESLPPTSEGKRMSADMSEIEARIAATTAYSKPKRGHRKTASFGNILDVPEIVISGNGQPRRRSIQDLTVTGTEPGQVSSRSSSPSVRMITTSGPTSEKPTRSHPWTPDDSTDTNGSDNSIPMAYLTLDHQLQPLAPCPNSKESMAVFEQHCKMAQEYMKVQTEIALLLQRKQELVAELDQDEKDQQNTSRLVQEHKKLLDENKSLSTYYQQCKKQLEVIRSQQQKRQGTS

As to `CC#CC(=O)N1CC[C@@H](n2c(=O)n(-c3ccc(Oc4ccccc4)cc3)c3c(N)ncnc32)C1` [Tirabrutinib], the remaining binding at 0.3 µM in test [1] (setting [24]) worked out at 99%; in test [2] (setting [24]) it was 98%.

For the compound `CC#CC(=O)N1CCC[C@H]1c1nc(-c2ccc(C(=O)Nc3ccccn3)cc2)c2c(N)nccn12` [Acalabrutinib], the remaining binding at 0.3 µM in test [3] (setting [25]) amounted to 75%; in [4] (setting [25]), 92%; in [5] (setting [25]) it was 85%; in test [6] (setting [25]) it was 96%; in test [7] (setting [25]), 72%; in test [8] (setting [25]) it was 58%. The remaining binding at 0.3 µM in test [9] (setting [25]) was determined as 78%; in [10] (setting [25]) it was 85%; in test [11] (setting [25]) it was 90%; in test [12] (setting [25]), 96%; in test [13] (setting [25]), 82%; in test [14] (setting [25]), 93%. The remaining binding at 0.3 µM in test [15] (setting [25]) came out at 93%; in test [16] (setting [25]), 91%; in test [17] (setting [25]) it was 69%; in [18] (setting [25]) it was 74%; in [19] (setting [25]), 74%; in test [20] (setting [25]), 97%. Besides, the remaining binding at 0.3 µM in [21] (setting [25]) was determined as 86%; in test [22] (setting [25]) it was 96%.

As to `C=CC(=O)N1CCC[C@@H](n2nc(-c3ccc(Oc4ccccc4)cc3)c3c(N)ncnc32)C1` [Ibrutinib], the remaining binding at 0.3 µM in test [3] (setting [26]) is 96%; in [10] (setting [26]) it was 31%; in test [23] (setting [26]) it was 89%; in test [13] (setting [26]), 94%; in test [22] (setting [26]), 97%.

In the case of `C=CC(=O)N1CCC([C@@H]2CCNc3c(C(N)=O)c(-c4ccc(Oc5ccccc5)cc4)nn32)CC1` [Zanubrutinib], the remaining binding at 0.3 µM in test [4] (setting [27]) is 100%; in [5] (setting [27]), 100%; in test [6] (setting [27]) it was 100%; in [7] (setting [27]) it was 96%; in [8] (setting [27]), 100%; in test [9] (setting [27]), 75%. For the same compound, the remaining binding at 0.3 µM was 63% in test [23] (setting [27]); 90% in test [11] (setting [27]); 100% in test [1] (setting [27]); 99% in test [12] (setting [27]); 92% in test [14] (setting [27]); 80% in [15] (setting [27]). Besides, the remaining binding at 0.3 µM in test [16] (setting [27]) was found to be 96%; in [17] (setting [27]) it was 94%; in test [18] (setting [27]), 98%; in test [19] (setting [27]), 100%; in test [20] (setting [27]), 82%; in test [21] (setting [27]), 83%. Moreover, in [2] (setting [27]), the remaining binding at 0.3 µM was 98%.

Source of the values: paper PMC10004634 (PLOS ONE, 2023).
